Numbered stars: 1 amine (or outer) side, 2 acyl side, 3 side chain; on linkers, the order of the positions; unused ones are H or OH. Bridge positions count the residues as written; N and C are the ends. Square brackets hold non-standard residues; d marks the D form. Peptide text beside a SMILES is read from it. ξ: configuration not given here. ξαMeNle(6-ylidene) = CC(CCCC=[*:3])(N[*:1])C(=O)[*:2]; X1 = CC(CCCCCCC=[*:3])(N[*:1])C(=O)[*:2]

Experimental findings from patent publication US11440939B2, “Anticancer peptides” (IDP DISCOVERY PHARMA, S.L., priority 2017, dated 2022) are described below.

The test system of this assay is GBM-18. Format: cell-based. On the procedure:
GMB-18, epithelial (glioblastoma, GMB), from surgical specimens from patients;
Cell line MCF-7 was cultured in incubator under CO2 (6%) at 37° C. in DMEM high glucose (Dulbecco's Modified Eagle Solution, Gibco-BRL 31966-21) medium with 10% fetal bovine serum inactivated (FBS) (Gibco-BRL 10106-169). Cell lines HL-60, NCI-H524, NCI-H526, NCI-H69, NCI-H82, NCI-H187 and H5B were cultured in an incubator at 37° C. in RPMI-1640 (Sigma R8758) medium with 10% of fetal bovine serum inactivated (FBS) and 2 mM glutamine (Sigma G7513). Cell line NCI-H510A was cultured in incubator in F12K medium with 10% of fetal bovine serum inactivated (FBS). […]
During the amplification step and the assays, adherent cells were rinsed with DPBS (Dulbecco's Phosphate Buffered Saline, Sigma D1283) three times and afterward treated for 5 minutes with trypsin ([…]) (Gibco-BRL, 15400054) in solution of DPBS at 37° C., and, once detached, transferred in the culturing medium. […] Cells were counted in a Neubauer chamber after labelling with Tripan-Blue.
Cells were incubated during 72 h in incubator under CO2 atmosphere at 37° C. Cell viability was measured by means of MTT (3-(4,5-dimethylthiazol-2-yl)-2,5-diphenyltetrazolium bromide) assay, Alamar Blue® (Biosource DAL1100) and Hexosaminidase activity test, consecutively, following manufacturer instructions. […]

Turning to `CC(C)C[C@H](NC(=O)[C@H](CCCCN)NC(=O)[C@@H](NC(=O)[C@@H](N)CCCNC(=N)N)C(C)C)C(=O)N[C@H](C(=O)N[C@@H](CC(N)=O)C(=O)N[C@@H](CC(C)C)C(=O)NC1(C)CCCCCCC=CCCCC(C)(C(=O)N[C@H](C(=O)N2CCC[C@H]2C(N)=O)C(C)C)NC(=O)[C@H](CCC(=O)O)NC(=O)[C@H](CCCNC(=N)N)NC(=O)[C@H](CC(C)C)NC(=O)[C@H]([C@@H](C)O)NC(=O)[C@H](C)NC(=O)[C@H](Cc2ccccc2)NC1=O)C(C)C` (stereo partly shown) [H14] (H-RVKLVNL[X1]FATLRE[ξαMeNle(6-ylidene)]VP-NH2; staple 8-15; N-terminus and C-terminus assumed), the EC50 is ~4 µM.

The EC50 is the concentration needed to bring the measured effect to its halfway point. Read a high EC50 as weaker potency.
